Test results published in patent US12234238B2, “Antimicrobial compounds and methods of making and using the same” (BIOVERSYS AG, priority 2017, dated 2025).

Experiments:
[1] = system: Staphylococcus aureus (S. aureus) 11540 strain; test: standard microdilution assay to determine minimum inhibitory concentrations (MICs), S. aureus; type: cell-based
Experimental: (§1) The in vitro activity of the compounds of the present disclosure can be determined. Antimicrobial testing is typically performed to determine the minimum inhibitory concentration (MIC). Minimum inhibitory concentrations (MICs) are determined by the microdilution method in a final volume of 100 μl according to protocols outlined by The Clinical and Laboratory Standards Institute (CLSI). Performance standards for reference strains are assessed within the same experimental design to maintain quality control. See, for example, Clinical Laboratory Standards Institute: Methods for dilution antimicrobial susceptibility tests for bacteria that grow aerobically M7-A8. Approved Standard-Eighth Edition. Wayne, PA: CLSI; December 2008: and Clinical Laboratory Standards Institute: Performance Standards for Antimicrobial Susceptibility Testing M100-S20; Approved Standard-Twentieth Edition. Wayne, PA: CLSI; June 2010. The compounds of the present disclosure were tested for antimicrobial activity. The Compounds 1-122 were run against Eschericia coli (E. coli) strain ATCC25922 and against Staphylococcus aureus (S. aureus) 11540 strain using a standard microdilution assay to determine minimum inhibitory concentrations (MICs). […] It will be recognized by one skilled in the art that the compounds can be assessed against other bacterial organisms and that the presentation of data for activity against Eschericia coli and Staphylococcus aureus are illustrative and in no way is intended to limit the scope of the present disclosure. The compounds of the present disclosure can be assayed against a range of other microorganisms depending upon the performance activity desired to be gathered. Furthermore, the “+” and “−” representation and the selection of a cutoff value of 16 micrograms/mL is also illustrative and in no way is intended to limit the scope of the present disclosure.

[2] = system: Eschericia coli (E. coli) strain ATCC25922; test: standard microdilution assay to determine minimum inhibitory concentrations (MICs), E. coli; type: cell-based; settings: Escherichia coli
Experimental: as §1

| Structure (SMILES) | MIC [1] [µg/mL] | MIC [2] [µg/mL] |
| --- | --- | --- |
| C[C@@H]1CNC(c2cc3cn(-c4ccc([C@@H]5CCC[C@@H](CCSC(=N)N)N5)cc4)c(=O)nc3[nH]2)C1 (stereo partly shown) [Compound 61] | ≤ 16 | ≤ 16 |
| C[C@H](N)CCCN1C(c2cc3cn(-c4ccc([C@@H]5CCC[C@@H](CCSC(=N)N)N5)cc4)c(=O)nc3[nH]2)C[C@@H]2CCCC[C@@H]21 (stereo partly shown) [Compound 62] | ≤ 16 | ≤ 16 |
| C[C@@H](N)CCCN1C[C@H](OCc2ccccc2)CC1c1cc2cn(-c3ccc([C@@H]4CCC[C@@H](CCSC(=N)N)N4)cc3)c(=O)nc2[nH]1 (stereo partly shown) [Compound 63] | ≤ 16 | ≤ 16 |
| C[C@@H](N)CCCN1C[C@@H](O)CC1c1cc2cn(-c3ccc([C@@H]4CCC[C@@H](CCSC(=N)N)N4)cc3)c(=O)nc2[nH]1 (stereo partly shown) [Compound 64] | ≤ 16 | ≤ 16 |
| C[C@@H](N)CCCN1C[C@H](N)CC1c1cc2cn(-c3ccc([C@@H]4CCC[C@@H](CCSC(=N)N)N4)cc3)c(=O)nc2[nH]1 (stereo partly shown) [Compound 65] | ≤ 16 | ≤ 16 |
| CN[C@@H]1CC(c2cc3cn(-c4ccc([C@@H]5CCC[C@@H](CCSC(=N)N)N5)cc4)c(=O)nc3[nH]2)N(CCC[C@@H](C)N)C1 (stereo partly shown) [Compound 66] | ≤ 16 | ≤ 16 |
| C[C@H]1CC(c2cc3cn(-c4ccc([C@@H]5CCC[C@@H](CCSC(=N)N)N5)cc4)c(=O)nc3[nH]2)N(CCC[C@@H](C)N)C1 (stereo partly shown) [Compound 67] | ≤ 16 | ≤ 16 |
| C[C@@H](N)CCCN1C[C@H](F)CC1c1cc2cn(-c3ccc([C@@H]4CCC[C@@H](CCSC(=N)N)N4)cc3)c(=O)nc2[nH]1 (stereo partly shown) [Compound 69] | ≤ 16 | ≤ 16 |

Now from value to compound:

| MIC [1] [µg/mL] | MIC [2] [µg/mL] | Structure (SMILES) |
| --- | --- | --- |
| ≤ 16 | ≤ 16 | C=CCN1[C@H](CCSC(=N)N)CCC[C@H]1c1ccc(-n2cc3cc(-c4cc(CCC[C@H](C)N)cc(Cl)c4F)[nH]c3nc2=O)cc1 [Compound 46] |
| ≤ 16 | ≤ 16 | C[C@H](N)CCO[C@H]1CNC(c2cc3cn(-c4ccc([C@@H]5CCC[C@@H](CCSC(=N)N)N5)cc4)c(=O)nc3[nH]2)C1 (stereo partly shown) [Compound 47] |
| ≤ 16 | ≤ 16 | N=C(N)SCC[C@@H]1CCC[C@@H](c2ccc(-n3cc4cc(C5C[C@@H](OCc6ccccc6)CN5)[nH]c4nc3=O)cc2)N1 (stereo partly shown) [Compound 49] |
| ≤ 16 | ≤ 16 | C=C[C@H](N)CCCc1cc(Cl)c(F)c(-c2cc3cn(-c4ccc([C@@H]5CCC[C@@H](CCSC(=N)N)N5C)cc4)c(=O)nc3[nH]2)c1 [Compound 50] |
| ≤ 16 | ≤ 16 | N=C(N)SCC[C@@H]1CCC[C@@H](c2ccc(-n3cc4cc(C5C[C@H]6CCCC[C@@H]6N5)[nH]c4nc3=O)cc2)N1 (stereo partly shown) [Compound 51] |
| ≤ 16 | ≤ 16 | C[C@H](N)CCCc1cc(Cl)c(F)c(-c2cc3cn(-c4ccc([C@@H]5CCCC[C@@H](CCSC(=N)N)N5)cc4)c(=O)nc3[nH]2)c1 [Compound 52] |
| ≤ 16 | ≤ 16 | C[C@H](N)CCCN1C(c2cc3cn(-c4ccc([C@@H]5CCC[C@@H](CCSC(=N)N)N5)cc4)c(=O)nc3[nH]2)C[C@H]2CCCC[C@@H]21 (stereo partly shown) [Compound 53] |
| ≤ 16 | ≤ 16 | CC(N)c1cc(Cl)c(F)c(-c2cc3cn(-c4ccc([C@@H]5CCC[C@@H](CCSC(=N)N)N5)cc4)c(=O)nc3[nH]2)c1 (stereo partly shown) [Compound 54] |
| ≤ 16 | ≤ 16 | CCCN1[C@H](CCSC(=N)N)CCC[C@H]1c1ccc(-n2cc3cc(-c4cc(CCC[C@H](C)N)cc(Cl)c4F)[nH]c3nc2=O)cc1 [Compound 56] |
| ≤ 16 | ≤ 16 | CO[C@@H]1CC(c2cc3cn(-c4ccc([C@@H]5CCC[C@@H](CCSC(=N)N)N5)cc4)c(=O)nc3[nH]2)N(CCC[C@H](C)N)C1 (stereo partly shown) [Compound 57] |
| ≤ 16 | ≤ 16 | C[C@H](N)CCCN1C=C(c2cc3cn(-c4ccc([C@@H]5CCC[C@@H](CCSC(=N)N)N5)cc4)c(=O)nc3[nH]2)CCC1 [Compound 58] |
| ≤ 16 | ≤ 16 | C[C@H](N)CCCc1cc(Cl)c(F)c(-c2cc3cn(-c4ccc([C@@H]5CCC=C[C@@H](CCSC(=N)N)N5)cc4)c(=O)nc3[nH]2)c1 [Compound 59] |
